According to patent US20050020643A1, “Pyridinyl amides and compositions thereof for use as fungicides” (priority 2002, published 2005):
Like-named read-outs stand apart in the source and are kept apart here. Marks after values point to notes of the source that are not given here.

Tests used:
Format in all cases: in vivo
[1] = system: Erysiphe graminis f. sp. tritici; experiment: Test A: preventive control of wheat powdery mildew on wheat seedlings; parameters: concentration or dose not given beside the values; settings: sprayed day before inoculation, rated after 7 days, rate not given
[2] = system: Puccinia recondita; experiment: Test B: preventive control of wheat leaf rust on wheat seedlings; parameters: concentration or dose not given beside the values; settings: sprayed day before inoculation, rate not given
[3] = system: Phytophthora infestans
[4] = system: Plasmopara viticola; experiment: Test E: preventive control of grape downy mildew on grape seedlings
[5] = system: Phytophthora infestans; experiment: whole plant or invertebrate; settings: for pest or weed control at 100 g/ha: Phytophthora infestans, in Solanum tuberosum, 120 h, read-out: Test F disease control rating; for Test F disease control rating: 100 g/ha on potato seedlings, sprayed day after inoculation
[6] = system: Plasmopara viticola; experiment: Test G: curative control of grape downy mildew on grape seedlings (sprayed after inoculation); settings: sprayed day after inoculation
[7] = tomato (or potato) seedlings, sprayed day before inoculation, rate not given
[8] = sprayed day before inoculation, rate not given

| Structure (SMILES) | Test A disease control rating [1] | Test B disease control rating [2] | Test D disease control rating [3, 7] | Test E disease control rating [4, 8] | pest or weed control at 100 g/ha [5] | Test G disease control rating ([6]; rate not given) | Test F disease control rating [5] | Test D disease control rating ([3]; 100 g/ha on potato seedlings) | Test E disease control rating ([4]; rate 100 g/ha (footnote *)) | Test G disease control rating ([6]; rate 100 g/ha (footnote *)) |
| --- | --- | --- | --- | --- | --- | --- | --- | --- | --- | --- |
| O=C(NCc1ncc(Cl)cc1Cl)c1c(Cl)ccnc1Cl [Compound 4, 2,4-Dichloro-N-[(3,5-dichloro-2-pyridinyl)methyl]-3-pyridinecarboxamide] | 0% | 9% | 100% | 70% | 100% | 100% |  |  |  |  |
| CC(NC(=O)c1c(I)ccnc1Cl)c1ncc(Cl)cc1Cl (stereo not drawn) [Compound 27] | 0% |  | 100% | 100% |  | 100% | 0% |  |  |  |
| Cc1cc(Cl)c(C(=O)NC(C)c2ncc(Cl)cc2Cl)c(Cl)n1 (stereo not drawn) [Compound 20, 2,4-Dichloro-N-[1-(3,5-dichloro-2-pyridinyl)ethyl]-6-methyl-3-pyridinecarboxamide] | 0% |  | 100% | 100% | 53% | 100% |  |  |  |  |
| O=C(NCc1ncc(Br)cc1Cl)c1c(I)ccnc1Cl [Compound 24] | 0% |  | 100% | 100% |  | 84% | 0% |  |  |  |
| Cc1cc(Cl)c(C(=O)NCc2ncc(Br)cc2Br)c(Cl)n1 [Compound 18] | 0% |  | 100% | 100% |  | 100% | 77% |  |  |  |
| CC(NC(=O)c1c(Br)ccnc1F)c1ncc(Br)cc1Cl (stereo not drawn) [Compound 37] | 0% |  | 100% | 100% |  | 100% | 100% |  |  |  |
| CC(NC(=O)c1c(Cl)ccnc1Cl)c1ncc(Br)cc1I (stereo not drawn) [Compound 23] | 0% |  | 100% | 100% |  | 96% | 98% |  |  |  |
| CC(NC(=O)c1c(I)ccnc1F)c1ncc(Br)cc1Br (stereo not drawn) [Compound 31] | 0% |  | 100% | 100% |  | 100% | 79% |  |  |  |
| Cc1cc(Cl)c(C(=O)NCc2ncc(Br)cc2Cl)c(Cl)n1 [Compound 14, N-[(5-bromo-3-chloro-2-pyridinyl)methyl]-2,4-dichloro-6-methyl-3-pyridinecarboxamide] | 0% | 41% | 100% | 100% | 98% | 100% |  |  |  |  |
| CC(NC(=O)c1c(I)ccnc1Cl)c1ncc(Br)cc1Cl (stereo not drawn) [Compound 25] | 0% |  | 100% | 100% |  | 72% | 0% |  |  |  |
| Cc1cc(Cl)c(C(=O)NCc2ncc(I)cc2Br)c(Cl)n1 [Compound 42] | 0% |  | 100% | 100% |  | 100% | 93% |  |  |  |
| Cc1cc(Cl)c(C(=O)NCc2ncc(Cl)cc2Br)c(Cl)n1 [Compound 40] | 0% |  | 100% | 100% |  | 99% | 95% |  |  |  |
| COc1cnc(C(C)NC(=O)c2c(Cl)cc(C)nc2Cl)c(Cl)c1 (stereo not drawn) [Compound 21] | 0% |  | 99% | 100% |  | 77% | 53% |  |  |  |
| O=C(NCc1ncc(I)cc1Br)c1c(Cl)ccnc1Cl [Compound 35] | 0% |  |  |  |  |  | 96% | 100# % | 99* % | 50* % |
| Cc1cc(Cl)c(C(=O)NC(C)c2ncc(I)cc2Br)c(Cl)n1 (stereo not drawn) [Compound 43] | 0% |  | 100% | 100% |  | 100% | 90% |  |  |  |
| CC(NC(=O)c1c(I)ccnc1F)c1ncc(Br)cc1Cl (stereo not drawn) [Compound 33] | 0% |  | 100% | 100% |  | 100% | 100% |  |  |  |

| Structure (SMILES) | Test A disease control rating [1] | Test B disease control rating [2] | Test D disease control rating [3, 7] | Test E disease control rating [4, 8] | pest or weed control at 100 g/ha [5] | Test G disease control rating ([6]; rate not given) | Test F disease control rating [5] | Test D disease control rating ([3]; 100 g/ha on potato seedlings) | Test E disease control rating ([4]; rate 100 g/ha (footnote *)) | Test G disease control rating ([6]; rate 100 g/ha (footnote *)) |
| --- | --- | --- | --- | --- | --- | --- | --- | --- | --- | --- |
| Cc1cc(Cl)c(C(=O)NCc2ncc(I)cc2Cl)c(Cl)n1 [Compound 16, N-[(3-chloro-5-iodo-2-pyridinyl)methyl]-2,4-dichloro-6-methyl-3-pyridinecarboxamide] | 0% | 32% | 100% | 100% | 83% | 95% |  |  |  |  |
| CC(NC(=O)c1c(Br)ccnc1Cl)c1ncc(Br)cc1Cl (stereo not drawn) [Compound 28] | 0% |  | 99% | 100% |  | 100% | 100% |  |  |  |
| Cc1cc(Cl)c(C(=O)NC(C)c2ncc(Br)cc2Br)c(Cl)n1 (stereo not drawn) [Compound 32] | 0% |  | 100% | 100% |  | 99% | 82% |  |  |  |
| Cc1cc(Cl)c(C(=O)NC(C)c2ncc(I)cc2Cl)c(Cl)n1 (stereo not drawn) [Compound 15, N-[1-(3-chloro-5-iodo-2-pyridinyl)ethyl]-2,4-dichloro-6-methyl-3-pyridinecarboxamide] | 0% | 0% | 100% | 100% | 70% | 100% |  |  |  |  |
| O=C(NCc1ncc(Cl)cc1Cl)c1c(I)ccnc1Cl [Compound 26] | 0% |  | 100% | 81% |  | 99% | 0% |  |  |  |
| CC(NC(=O)c1c(Cl)ccnc1Cl)c1ncc(Br)cc1Br (stereo not drawn) [Compound 7] | 0% | 45% | 100% | 100% |  | 100% | 100% |  |  |  |
| CC(NC(=O)c1c(Br)ccnc1F)c1ncc(Br)cc1Br (stereo not drawn) [Compound 39] | 0% |  | 100% | 100% |  | 100% | 100% |  |  |  |
| CC(NC(=O)c1c(Br)ccnc1F)c1ncc(Cl)cc1Cl (stereo not drawn) [Compound 38] | 0% |  | 100% | 100% |  | 100% | 100% |  |  |  |
| Cc1cc(Cl)c(C(=O)NC(C)c2ncc(Cl)cc2Br)c(Cl)n1 (stereo not drawn) [Compound 41] | 0% |  | 100% | 100% |  | 100% | 97% |  |  |  |
| CC(NC(=O)c1c(Cl)ccnc1Cl)c1ncc(I)cc1Br (stereo not drawn) [Compound 36] | 0% |  |  |  |  |  | 92% | 100# % | 100* % | 92* % |
| O=C(NCc1ncc(Br)cc1Br)c1c(Cl)ccnc1Cl [Compound 17] | 0% |  | 100% | 99% |  | 98% | 73% |  |  |  |
| Cc1ccnc(Br)c1C(=O)NC(C)c1ncc(Br)cc1Cl (stereo not drawn) [Compound 29] | 0% |  | 99% | 100% |  | 94% | 57% |  |  |  |
| COc1cnc(C(C)NC(=O)c2c(Cl)ccnc2Cl)c(Cl)c1 (stereo not drawn) [Compound 22] | 0% |  | 100% | 100% |  | 94% | 98% |  |  |  |
| CC(NC(=O)c1c(Cl)ccnc1Cl)c1ncc(Cl)cc1Br (stereo not drawn) [Compound 34] | 0% |  | 100% | 100% |  | 100% | 99% |  |  |  |
| Cc1cc(Cl)c(C(=O)NCc2ncc(Cl)cc2Cl)c(Cl)n1 [Compound 19, 2,4-Dichloro-N-[(3,5-dichloro-2-pyridinyl)methyl]-6-methyl-3-pyridinecarboxamide] | 0% |  | 99% | 100% | 0% | 100% |  |  |  |  |
| CC(NC(=O)c1c(I)ccnc1Cl)c1ncc(Br)cc1Br (stereo not drawn) [Compound 30] | 0% |  | 100% | 100% |  | 93% | 44% |  |  |  |
